Measurements: patent US6506742B2, “Soluble contraceptive liquid formulation” (Ortho-McNeil Pharmaceutical, Inc., priority 1999, dated 2003)

Assay: Stability study of oral contraceptive liquid formulation stored at room temperature, amount of contraceptive in solution
Assay type: physicochemical
Conditions: solubilized according to the process (EtOH/PEG 400/water)
Text: A formulation as prepared in Examples 1 or 2, as shown in Table 3 were stored in a container at room temperature and tested periodically for the amount of contraceptive in solution. The reported figure of the contraceptives in solution is in percent of label claim.

solubility and stability in water | SMILES
greatly increased | C#C[C@]1(OC(C)=O)CC[C@H]2[C@@H]3CCC4=CC(=NO)CC[C@@H]4[C@H]3CC[C@@]21CC (mixture of isomers) [NGM, Norgestimate]
greatly increased | C#C[C@]1(O)CC[C@H]2[C@@H]3CCc4cc(O)ccc4[C@H]3CC[C@@]21C [EE, ethinyl estradiol]
